Source: the supplement of paper PMC11451515

System: P12-Ichikawa
Experiment: cell viability relative to DMSO control; higher = less cytotoxic
Settings: 48 h
How it was run: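 Three leukemia lines were tested: NOMO1 and SEM at 500 cells/well and P12-Ichikawa at 1000 cells/well. Each was adapted for at least four passages in each medium and seeded in 5 μl in 1536-well plates, and library compounds in DMSO were pin-dosed from 47 μM to 0.79 nM in 11 threefold steps. After 48 h at 37°C, CellTiter-Glo One luminescence was read. Viability is a percentage relative to DMSO wells on each plate, with cell-free wells as background.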

[1] = HPLM + 10% dialyzed FBS, 0.000781 µM
[2] = HPLM + 10% dialyzed FBS, 0.00234 µM
[3] = HPLM + 10% dialyzed FBS, 0.00702 µM
[4] = HPLM + 10% dialyzed FBS, 0.0211 µM
[5] = HPLM + 10% dialyzed FBS, 0.0632 µM
[6] = HPLM + 10% dialyzed FBS, 0.19 µM
[7] = HPLM + 10% dialyzed FBS, 0.569 µM
[8] = HPLM + 10% dialyzed FBS, 1.71 µM
[9] = HPLM + 10% dialyzed FBS, 5.12 µM
[10] = HPLM + 10% dialyzed FBS, 15.4 µM
[11] = HPLM + 10% dialyzed FBS, 46.1 µM
[12] = RPMI 5 mM glucose + 10% FBS, 0.000781 µM
[13] = RPMI 5 mM glucose + 10% FBS, 0.00234 µM
[14] = RPMI 5 mM glucose + 10% FBS, 0.00702 µM
[15] = RPMI 5 mM glucose + 10% FBS, 0.0211 µM
[16] = RPMI 5 mM glucose + 10% FBS, 0.0632 µM
[17] = RPMI 5 mM glucose + 10% FBS, 0.19 µM
[18] = RPMI 5 mM glucose + 10% FBS, 0.569 µM
[19] = RPMI 5 mM glucose + 10% FBS, 1.71 µM
[20] = RPMI 5 mM glucose + 10% FBS, 5.12 µM
[21] = RPMI 5 mM glucose + 10% FBS, 15.4 µM
[22] = RPMI 5 mM glucose + 10% FBS, 46.1 µM
[23] = RPMI 5 mM glucose + 10% dialyzed FBS, 0.000781 µM
[24] = RPMI 5 mM glucose + 10% dialyzed FBS, 0.00234 µM
[25] = RPMI 5 mM glucose + 10% dialyzed FBS, 0.00702 µM
[26] = RPMI 5 mM glucose + 10% dialyzed FBS, 0.0211 µM
[27] = RPMI 5 mM glucose + 10% dialyzed FBS, 0.0632 µM
[28] = RPMI 5 mM glucose + 10% dialyzed FBS, 0.19 µM
[29] = RPMI 5 mM glucose + 10% dialyzed FBS, 0.569 µM
[30] = RPMI 5 mM glucose + 10% dialyzed FBS, 1.71 µM
[31] = RPMI 5 mM glucose + 10% dialyzed FBS, 5.12 µM
[32] = RPMI 5 mM glucose + 10% dialyzed FBS, 15.4 µM
[33] = RPMI 5 mM glucose + 10% dialyzed FBS, 46.1 µM

Row | Structure (SMILES) | cell viability [1] [%] | cell viability [2] [%] | cell viability [3] [%] | cell viability [4] [%] | cell viability [5] [%] | cell viability [6] [%] | cell viability [7] [%] | cell viability [8] [%] | cell viability [9] [%] | cell viability [10] [%] | cell viability [11] [%] | cell viability [12] [%] | cell viability [13] [%] | cell viability [14] [%] | cell viability [15] [%] | cell viability [16] [%] | cell viability [17] [%] | cell viability [18] [%] | cell viability [19] [%] | cell viability [20] [%] | cell viability [21] [%] | cell viability [22] [%] | cell viability [23] [%] | cell viability [24] [%] | cell viability [25] [%] | cell viability [26] [%] | cell viability [27] [%] | cell viability [28] [%] | cell viability [29] [%] | cell viability [30] [%] | cell viability [31] [%] | cell viability [32] [%] | cell viability [33] [%]
1 | CC(C)C1CCC(C(=O)N[C@H](Cc2ccccc2)C(=O)O)CC1 (some centres not stated) | 100 | 95.9 | 98.9 | 103 | 95 | 99.5 | 92.5 | 88.2 | 93.6 | 87.4 | 86.9 | 94.3 | 97.8 | 91.9 | 96.9 | 98.2 | 93.7 | 84.4 | 88.3 | 86.3 | 83.5 | 87.1 | 91.1 | 95.3 | 88.2 | 92.3 | 90.9 | 89.7 | 77.7 | 86.9 | 89.7 | 79.9 | 84.6
2 | Nc1ccc(C(=O)c2cc3c(ccc4ccccc43)[nH]2)cc1 | 121 | 124 | 122 | 118 | 120 | 109 | 96.4 | 81.4 | 31.1 | 10.6 | 5.96 | 118 | 112 | 115 | 118 | 112 | 108 | 102 | 77.5 | 40.7 | 12.9 | 8.36 | 118 | 115 | 117 | 102 | 116 | 111 | 91 | 74.9 | 56.6 | 13.7 | 5.99
3 | CCCOc1ccc(C(=O)OCCN(CC)CC)cc1N | 106 | 116 | 79.2 | 113 | 122 | 119 | 122 | 123 | 125 | 119 | 118 | 104 | 130 | 69.2 | 112 | 129 | 128 | 130 | 126 | 133 | 115 | 120 | 100 | 115 | 72.8 | 111 | 125 | 123 | 123 | 122 | 130 | 127 | 110
4 | O=C(c1cncc(Br)c1)N1CCC(N2CCCC2)CC1 | 107 | 97.4 | 106 | 103 | 105 | 99.9 | 100 | 101 | 100 | 95.1 | 89.9 | 93.6 | 99.7 | 100 | 95.9 | 98.2 | 96.7 | 100 | 94 | 103 | 92.5 | 90.3 | 95.9 | 102 | 99.6 | 99.6 | 95.2 | 95.1 | 96.7 | 100 | 92 | 87.1 | 92
5 | CC1(C)SCCN([S+](=O)([O-])c2ccc(OCC#CCO)cc2)[C@H]1C(=O)NO | 103 | 108 | 107 | 98.9 | 104 | 103 | 98.5 | 90.9 | 91.2 | 93.4 | 95.1 | 106 | 95.5 | 101 | 98.7 | 101 | 95.8 | 104 | 87.5 | 87.9 | 80.6 | 89.2 | 97 | 97.7 | 101 | 103 | 89.8 | 88.3 | 88.1 | 91.9 | 86.9 | 85.4 | 83.6
6 | O=C(O)c1cc(O)c2c(c1)C(=O)c1cccc(O)c1C2=O | 113 | 117 | 123 | 117 | 107 | 117 | 112 | 110 | 107 | 106 | 99.9 | 110 | 120 | 113 | 119 | 119 | 113 | 109 | 120 | 98 | 113 | 102 | 118 | 119 | 113 | 114 | 112 | 112 | 110 | 108 | 99.1 | 108 | 99.7
7 | Cc1cn2cc(C(=O)N(C)CCO)cc(N[C@@H]3CCOc4cccc(C)c43)c2n1 | 107 | 106 | 109 | 112 | 111 | 119 | 118 | 115 | 119 | 110 | 117 | 105 | 119 | 107 | 113 | 118 | 117 | 115 | 123 | 115 | 105 | 114 | 106 | 109 | 105 | 116 | 118 | 114 | 118 | 115 | 110 | 118 | 109
8 | CC(C(C)N1CC(=O)NC(=O)C1)N1CC(=O)NC(=O)C1 (configuration not stated) | 117 | 123 | 121 | 119 | 131 | 130 | 130 | 117 | 109 | 102 | 89.6 |  |  |  |  |  |  |  |  |  |  |  |  |  |  |  |  |  |  |  |  |  | 
